This note sets out measurements from article PMC4826290 (Journal of molecular biology, 2016).

This test addresses T1, Pif1^238–780 (Saccharomyces cerevisiae, UniProt P07271).
T1 sequence (P07271 238-780): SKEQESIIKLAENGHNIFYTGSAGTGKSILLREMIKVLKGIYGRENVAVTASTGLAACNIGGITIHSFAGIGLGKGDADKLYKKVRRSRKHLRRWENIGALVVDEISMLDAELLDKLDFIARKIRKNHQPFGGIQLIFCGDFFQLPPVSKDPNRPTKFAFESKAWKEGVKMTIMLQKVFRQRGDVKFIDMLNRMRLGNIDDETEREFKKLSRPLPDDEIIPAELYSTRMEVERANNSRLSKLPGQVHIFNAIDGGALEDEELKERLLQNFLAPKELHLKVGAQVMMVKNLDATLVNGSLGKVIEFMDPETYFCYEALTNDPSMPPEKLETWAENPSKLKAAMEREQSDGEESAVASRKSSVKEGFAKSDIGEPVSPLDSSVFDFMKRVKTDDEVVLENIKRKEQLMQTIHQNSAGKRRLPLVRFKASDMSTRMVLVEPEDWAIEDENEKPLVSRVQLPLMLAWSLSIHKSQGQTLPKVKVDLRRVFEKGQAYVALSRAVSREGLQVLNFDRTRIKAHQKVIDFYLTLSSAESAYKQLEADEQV
The experiment in a line: ssDNA-dependent ATPase. Type of test: biochemical.

Each structure is given as a SMILES string.

Consider `Nc1ncnc2c1ncn2[C@@H]1O[C@H](COP(=O)(O)OP(=O)(O)OP(=O)(O)O)[C@@H](O)[C@H]1O` [ATP], for which the KATP entry is “does not have major effects on the DNA-dependent ATPase activity and the KATP (Figure S1)”.
